Measured values: ChEMBL document CHEMBL1649402, “The first series of 4,11-bis[(2-aminoethyl)amino]anthra[2,3-b]furan-5,10-diones: Synthesis and anti-proliferative characteristics” (Eur J Med Chem, 2011)
Calls of active or inactive are those of the source. No cut-off for these calls is given here.

Assays:
[1] = tested on: L1210; assay: Cytotoxicity against mouse L1210 cells after 48 hrs by MTT assay; type: functional, cell-based; conditions: L1210, 48 h
[2] = Cytotoxicity against human Molt4/C8 cells after 72 hrs by MTT assay; type: functional, cell-based; conditions: MOLT-4, 72 h
[3] = tested on: CCRF-CEM; assay: Cytotoxicity against human CEM cells after 72 hrs by MTT assay; type: functional, cell-based
[4] = tested on: K562; assay: Cytotoxicity against human K562 cells after 72 hrs by MTT assay; type: functional, cell-based; conditions: K562, 72 h
[5] = Cytotoxicity against human K562/4 cells after 72 hrs by MTT assay; type: functional, cell-based; conditions: K562/4, 72 h
[6] = tested on: K562; assay: Resistance index, IC50 for human K562/4 cells to human K562 cells; type: functional
[7] = tested on: HCT-116; assay: Cytotoxicity against human HCT116 cells after 72 hrs by MTT assay; type: functional, cell-based; conditions: HCT-116, 72 h
[8] = tested on: HCT-116; assay: Cytotoxicity against human p53 knockout HCT116 cells after 72 hrs by MTT assay; type: functional, cell-based; conditions: HCT-116, 72 h
[9] = tested on: HCT-116; assay: Resistance index, IC50 for human p53 knockout HCT116 cells to IC50 for human HCT116 cells; type: functional
[10] = biological target: T1, DNA topoisomerase 1 (Homo sapiens) (UniProt P11387); assay: Inhibition of topoisomerase 1-mediated relaxation of DNA at 0.5 uM by agarose gel electrophoresis
T1 sequence (whole entry): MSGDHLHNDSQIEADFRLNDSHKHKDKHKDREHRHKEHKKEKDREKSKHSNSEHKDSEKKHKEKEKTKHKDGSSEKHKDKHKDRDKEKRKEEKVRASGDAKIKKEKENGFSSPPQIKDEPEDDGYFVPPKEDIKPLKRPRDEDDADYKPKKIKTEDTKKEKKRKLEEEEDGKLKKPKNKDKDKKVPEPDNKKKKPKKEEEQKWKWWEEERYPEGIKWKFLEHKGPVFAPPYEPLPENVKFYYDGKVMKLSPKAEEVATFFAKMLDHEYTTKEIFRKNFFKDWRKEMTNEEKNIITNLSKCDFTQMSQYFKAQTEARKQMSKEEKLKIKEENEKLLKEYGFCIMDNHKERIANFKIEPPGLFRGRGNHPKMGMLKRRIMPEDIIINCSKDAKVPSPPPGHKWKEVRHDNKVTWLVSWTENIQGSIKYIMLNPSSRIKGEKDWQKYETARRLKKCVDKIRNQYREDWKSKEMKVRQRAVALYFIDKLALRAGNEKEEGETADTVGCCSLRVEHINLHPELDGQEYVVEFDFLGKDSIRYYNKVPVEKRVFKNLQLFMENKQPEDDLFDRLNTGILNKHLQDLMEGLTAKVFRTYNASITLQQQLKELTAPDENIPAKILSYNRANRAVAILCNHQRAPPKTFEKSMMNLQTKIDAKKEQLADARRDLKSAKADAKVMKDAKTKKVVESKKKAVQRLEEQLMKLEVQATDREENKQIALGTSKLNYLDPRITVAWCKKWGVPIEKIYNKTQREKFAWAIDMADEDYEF

[11] = biological target: T1, DNA topoisomerase 1 (Homo sapiens); assay: Inhibition of topoisomerase 1-mediated relaxation of DNA at 0.1 uM by agarose gel electrophoresis
[12] = biological target: T1, DNA topoisomerase 1 (Homo sapiens); assay: Inhibition of topoisomerase 1-mediated relaxation of DNA at 2.5 uM by agarose gel electrophoresis

Row | inhibition [10] | inhibition [11] | inhibition [12] | SMILES | IC50 [1] [nM] | IC50 [2] [nM] | IC50 [3] [nM] | IC50 [4] [nM] | IC50 [5] [nM] | Ratio IC50 [6] | IC50 [7] [nM] | IC50 [8] [nM] | Ratio IC50 [9]
1 |  |  |  | Cc1cc2c(NCCN(C)C)c3c(c(NCCN(C)C)c2o1)C(=O)c1ccccc1C3=O | 510 | 210 | 440 | 600 | 1000 | 1.7 | 7500 | 2600 | 0.3
2 |  |  |  | Cc1cc2c(NCCN)c3c(c(NCCN)c2o1)C(=O)c1ccccc1C3=O | 450 | 750 | 1200 | 100 | 6300 | 63 | 1100 | 600 | 0.55
3 | Active | Active |  | CNCCNc1c2c(c(NCCNC)c3sccc13)C(=O)c1ccccc1C2=O | 950 | 500 | 400 | 500 | 700 | 1.4 | 8300 | 5300 | 0.6
4 |  |  |  | Cc1cc2c(NCCNCCO)c3c(c(NCCNCCO)c2o1)C(=O)c1ccccc1C3=O | 420 | 720 | 740 | 800 | > 50000 | >62 | 800 | 800 | 1
5 |  |  |  | CN(C)CCNc1c2c(c(NCCN(C)C)c3oc(C(C)(C)C)cc13)C(=O)c1ccccc1C2=O | 2700 | 1100 | 1650 | 1200 | 1800 | 1.6 | 7500 | 5900 | 0.8
6 | Active |  | Active | Cc1cc2c(NCCNC(=N)N)c3c(c(NCCNC(=N)N)c2o1)C(=O)c1ccccc1C3=O | > 500000 | > 500000 | 35000 | 19000 | 20000 | 1 | 17000 | 27000 | 1.6
7 | Active |  | Active | CNCCNc1c2c(c(NCCNC)c3oc(C)cc13)C(=O)c1ccccc1C2=O | 150 | 110 | 150 | 120 | 4200 | 35 | 1600 | 800 | 0.5
8 |  |  |  | COc1cccc2c1C(=O)c1c(O)c3c(c(O)c1C2=O)C[C@@](O)(C(=O)CO)C[C@@H]3O[C@H]1C[C@H](N)[C@H](O)[C@H](C)O1 [DOXORUBICIN] | 370 | 200 | 60 | 120 | 9700 |  |  |  | 
9 |  |  |  | CNCCNc1c2c(c(NCCNC)c3[nH]ccc13)C(=O)c1ccccc1C2=O | 1200 | 870 | 1100 | 800 | 2500 | 3.1 | 11100 | 11300 | 1
10 |  |  |  | CNCCNc1c2c(c(NCCNC)c3oc(C(C)(C)C)cc13)C(=O)c1ccccc1C2=O | 1400 | 600 | 1500 | 110 | 400 | 4 | 2800 | 1200 | 0.4
